Results as given in US9572891B2, “Oligonucleotide conjugates” (Geron Corporation, priority 2001, dated 2017).
“And” between values parts separate entries of the source, which are not always exact repeats. Equal entries are not always repeated. Where two headings read alike, the source gives them in different places.

Molecular target: T1, telomerase (Homo sapiens, UniProt O14746)
T1 construct: made in house; host or cells: 293 cells over-expressing hTERT
Assay: Bio-Tel FlashPlate telomerase inhibition assay
Format: biochemical
Procedure: Extracts used for screening telomerase inhibitors were routinely prepared from 293 cells over-expressing the protein catalytic subunit of telomerase (hTERT). […] 200 ml of packed cells (harvested from about 100 liters of culture) were resuspended in an equal volume of hypotonic buffer (10 mM Hepes pH 7.9, 1 mM MgCl2, 1 mM DTT, 20 mM KCl, 1 mM PMSF) and lysed using a dounce homogenizer. The glycerol concentration was adjusted to 10% and NaCl was slowly added to give a final concentration of 0.3 M. The lysed cells were stirred for 30 min and then pelleted at 100,000×g for 1 hr. Solid ammonium sulfate was added to the S100 supernatant to reach 42% saturation. The material was centrifuged; the pellet was resuspended in one fifth of the original volume and dialyzed against Buffer ‘A’ containing 50 mM NaCl. After dialysis the extract was centrifuged for 30 min at 25,000×g. Prior to affinity chromatography, Triton X-100™ (0.5%), KCl (0.3 M) and tRNA ([…]) were added. Affinity oligonucleotide (5′-biotinTEG-biotinTEG-biotinTEG-GTA GAC CTG TTA CCA guu agg guu ag 3′ [SEQ ID NO: 16]; lower case represents 2′ O-methyl ribonucleotides and upper case represents deoxynucleotides) was added to the extract (1 nmol per 10 ml of extract). After an incubation of 10 min at 30° C., Neutravidin beads (Pierce; 250 μl of a 50% suspension) were added and the mixture was rotated overnight at 4° C. The beads were pelleted and washed three times with Buffer ‘B’ containing 0.3 M KCl, twice with Buffer ‘B’ containing 0.6 M KCl, and twice more with Buffer B containing 0.3 M KCl. Telomerase was eluted in Buffer ‘B’ containing 0.3 M KCl, 0.15% Triton X-100™ and a 2.5 molar excess of displacement oligonucleotide (5′-CTAACCCTAACTGGTAACAGGTCTAC-3′ [SEQ ID NO: 17] at 0.5 ml per 125 μl of packed Neutravidin beads) for 30 min. at room temperature. A second elution was performed and pooled with the first. Purified extracts typically had specific activities of 10 fmol nucleotides incorporated/min/μl extract, or 200 nucleotides/min/mg total protein.
A suitable assay for detection and/or measurement of telomerase activity is based on a measurement of the addition of TTAGGG (SEQ ID NO. 8) telomeric repeats to a biotinylated telomerase substrate primer, a reaction catalyzed by telomerase. The biotinylated products are captured in streptavidin-coated microtiter plates. An oligonucleotide probe complementary to 3.5 telomere repeats labeled with ^33P is used for measuring telomerase products, as described below. Unbound probe is removed by washing and the amount of probe annealing to the captured telomerase products is determined by scintillation counting.
The data provided in Tables 1 and 2 below were obtained by performing the assay as described below: • 1. Oligonucleotide conjugates were stored as concentrated stocks and dissolved in PBS. • 2. For testing, the oligonucleotide conjugates were diluted to a 15× working stock in PBS and 2 μl was dispensed into two wells of a 96-well microtiter dish (assayed in duplicate). • 3. Telomerase extract was diluted to a specific activity of 0.04-0.09 fmol dNTP incorporated/min./μl in Telomerase Dilution Buffer and 18 μl added to each sample well to preincubate with compound for 30 minutes at room temperature. • 4. The telomerase reaction was initiated by addition of 10 μl Master Mix to the wells containing telomerase extract and oligonucleotide compound being tested. The plates were sealed and incubated at 37° C. for 90 min. • 5. The reaction was stopped by the addition of 10 μl HCS. • 6. 25 μl of the reaction mixture was transferred to a 96-well streptavidin-coated FlashPlate™ (NEN) and incubated for 2 hours at room temperature with mild agitation. • 7. The wells were washed three times with 180 μl 2×SSC without any incubation.
8. The amount of probe annealed to biotinylated telomerase products was detected in a scintillation counter.

[1] = Table 1, oligonucleotide has N3′→P5′ phosphoramidate (NP) internucleoside linkages, read-out: IC50 NP
[2] = Table 1, oligonucleotide has N3′→P5′ thio-phosphoramidate (NPS) internucleoside linkages, read-out: IC50 NPS
[3] = Table 2, oligonucleotide has N3′→P5′ thio-phosphoramidate (NPS) internucleoside linkages, read-out: IC50 NPS

T1 sequence (O14746 whole entry): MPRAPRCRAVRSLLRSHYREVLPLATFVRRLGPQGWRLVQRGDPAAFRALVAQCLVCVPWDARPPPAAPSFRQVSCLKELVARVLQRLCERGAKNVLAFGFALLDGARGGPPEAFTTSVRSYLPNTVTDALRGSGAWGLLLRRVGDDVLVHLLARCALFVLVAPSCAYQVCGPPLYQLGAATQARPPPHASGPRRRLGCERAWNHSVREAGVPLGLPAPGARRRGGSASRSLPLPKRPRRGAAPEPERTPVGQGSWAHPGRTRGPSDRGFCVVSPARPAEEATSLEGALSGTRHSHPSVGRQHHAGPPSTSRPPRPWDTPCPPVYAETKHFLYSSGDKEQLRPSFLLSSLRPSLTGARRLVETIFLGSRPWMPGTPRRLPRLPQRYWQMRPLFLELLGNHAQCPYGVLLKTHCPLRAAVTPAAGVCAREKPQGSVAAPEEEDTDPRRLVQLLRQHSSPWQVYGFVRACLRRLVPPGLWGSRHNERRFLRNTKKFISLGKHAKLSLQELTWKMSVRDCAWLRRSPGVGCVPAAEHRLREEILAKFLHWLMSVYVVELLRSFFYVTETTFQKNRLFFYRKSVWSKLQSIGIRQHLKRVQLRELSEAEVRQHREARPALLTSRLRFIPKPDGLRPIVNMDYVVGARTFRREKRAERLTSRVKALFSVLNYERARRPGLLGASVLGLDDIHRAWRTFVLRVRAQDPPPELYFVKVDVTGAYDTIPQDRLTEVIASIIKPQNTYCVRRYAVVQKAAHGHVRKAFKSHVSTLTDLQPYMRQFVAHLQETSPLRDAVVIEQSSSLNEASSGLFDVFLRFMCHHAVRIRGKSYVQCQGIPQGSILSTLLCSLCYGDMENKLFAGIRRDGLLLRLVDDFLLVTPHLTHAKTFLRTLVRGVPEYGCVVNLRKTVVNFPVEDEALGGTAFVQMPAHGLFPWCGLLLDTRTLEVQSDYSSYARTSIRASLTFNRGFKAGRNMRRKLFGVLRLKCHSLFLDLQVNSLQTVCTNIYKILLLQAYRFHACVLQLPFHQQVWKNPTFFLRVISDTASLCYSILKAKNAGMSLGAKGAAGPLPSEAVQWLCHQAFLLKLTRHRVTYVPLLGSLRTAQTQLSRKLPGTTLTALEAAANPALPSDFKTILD
T1 sequence (O60832 whole entry partner): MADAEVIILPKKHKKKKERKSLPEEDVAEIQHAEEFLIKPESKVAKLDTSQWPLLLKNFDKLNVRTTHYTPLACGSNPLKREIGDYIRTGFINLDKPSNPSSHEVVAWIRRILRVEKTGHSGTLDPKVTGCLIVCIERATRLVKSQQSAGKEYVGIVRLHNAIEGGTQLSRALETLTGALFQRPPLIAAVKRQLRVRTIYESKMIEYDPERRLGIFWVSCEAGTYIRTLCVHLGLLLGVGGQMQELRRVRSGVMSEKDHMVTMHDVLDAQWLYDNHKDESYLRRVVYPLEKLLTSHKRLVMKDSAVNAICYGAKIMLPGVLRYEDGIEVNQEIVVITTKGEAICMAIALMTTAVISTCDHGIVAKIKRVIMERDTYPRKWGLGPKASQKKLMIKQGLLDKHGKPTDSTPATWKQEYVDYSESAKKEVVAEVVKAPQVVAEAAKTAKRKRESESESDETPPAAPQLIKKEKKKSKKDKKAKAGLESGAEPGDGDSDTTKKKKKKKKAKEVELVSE
T1 sequence (Q9NPE3 whole entry partner): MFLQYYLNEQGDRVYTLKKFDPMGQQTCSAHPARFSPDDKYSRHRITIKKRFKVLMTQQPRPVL
T1 sequence (Q9NX24 whole entry partner): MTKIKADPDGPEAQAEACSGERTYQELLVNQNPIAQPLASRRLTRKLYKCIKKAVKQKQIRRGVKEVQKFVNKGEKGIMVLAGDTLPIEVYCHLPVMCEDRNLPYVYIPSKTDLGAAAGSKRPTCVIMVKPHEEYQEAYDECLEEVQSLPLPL
T1 sequence (Q9NY12 whole entry partner): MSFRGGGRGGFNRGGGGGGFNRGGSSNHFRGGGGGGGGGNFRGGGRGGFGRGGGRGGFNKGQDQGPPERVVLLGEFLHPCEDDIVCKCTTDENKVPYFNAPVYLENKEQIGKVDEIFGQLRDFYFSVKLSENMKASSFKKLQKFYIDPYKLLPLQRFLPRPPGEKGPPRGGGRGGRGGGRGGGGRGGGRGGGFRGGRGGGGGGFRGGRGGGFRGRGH

**Q.** With “GGGTTAG (unconjugated): unconjugated oligonucleotide GGGTTAG (SEQ ID: 6), tested with NP and with NPS internucleoside linkages” as the sequence, how does the IC50 [1] read?
**A.** The IC50 was 0.6 µM.

**Q.** And the IC50 [2]?
**A.** Its IC50 is 0.009 µM and 0.005 µM and 0.01 µM and 0.008 µM.

**Q.** What about the IC50 [3] of the same sequence?
**A.** Its IC50 is 0.009 µM and 0.005 µM and 0.01 µM.

**Q.** How did the IC50 [1] turn out when “TTAGGG (unconjugated): unconjugated oligonucleotide TTAGGG (SEQ ID: 8), NP and NPS forms” was run?
**A.** Its IC50 is 11 µM.

**Q.** What about the IC50 [2] of the same sequence?
**A.** The IC50 was 1.2 µM.

**Q.** And the IC50 [3]?
**A.** The IC50 was 1.17 µM and 1 to 55 µM.

**Q.** Which results are given for “GTTAGG (unconjugated): unconjugated oligonucleotide GTTAGG (SEQ ID: 7), NP and NPS forms”?
**A.** IC50 [1]: 0.47 µM; IC50 [2]: 0.12 µM
